In patent US20260144251A1, “ANTIMICROBIAL NANOCLAYS COMPRISING CATIONIC ANTIMICROBIALS, METHOD OF PREPARATION AND USES THEREOF” (Polyamyna Nanotech Inc., priority 2019, published 2026):
Converted amounts (≈) assume the structure as drawn. Read-outs that look alike come from different tables or passages of the source.

How the values were obtained:
Assay in all cases: MIC, microbroth dilution method
[1] = system: A. baumannii (AB034); format: cell-based
Protocol: (§1) The antimicrobial activity (minimum inhibitory concentration, MIC) was evaluated by employing microbroth dilution method to determine the lowest concentration of the assayed antimicrobial additive material.

[2] = system: K. pneumoniae (KP001); format: cell-based
Protocol: as §1

[3] = system: E. cloacae (EB5); format: cell-based
Protocol: as §1

[4] = system: E. coli (K12); format: cell-based
Protocol: as §1

[5] = system: P. aeruginosa (PA07); format: cell-based
Protocol: as §1

[6] = system: MRSA (SA001); format: cell-based, Staphylococcus aureus
Protocol: as §1

[7] = system: A. baumannii (AB30); format: cell-based
Protocol: as §1

[8] = system: MRSA (SA004); format: cell-based, Staphylococcus aureus
Protocol: as §1

[9] = system: E. coli (E524); format: cell-based; settings: Escherichia coli
Protocol: as §1

Row | Molecule | MIC [1] [µg/mL] | MIC [2] [µg/mL] | MIC [3] [µg/mL] | MIC [4] [µg/mL] | MIC [5] [µg/mL] | MIC [6] [µg/mL] | MIC [7] [µg/mL] | MIC [8] [µg/mL] | MIC ([7]; Acinetobacter baumannii, read-out: MIC) [µg/mL] | MIC ([2]; Klebsiella pneumoniae, read-out: MIC) [µg/mL] | MIC ([3]; Enterobacter cloacae, read-out: MIC) [µg/mL] | MIC [9] [µg/mL] | MIC ([5]; Pseudomonas aeruginosa, read-out: MIC) [µg/mL] | MIC ([8]; Staphylococcus aureus, read-out: MIC) [µg/mL]
1 | Benzalkonium chloride [BAC] | 2 | 4 | 8 | 16 | 32 | 1 |  |  |  |  |  |  |  | 
2 | [Ag] [Ag, Silver] | 8 | 8 | 32 | 2 | 2 | 8 |  |  |  |  |  |  |  | 
3 | Neomycin |  |  | 4 |  | 128 |  | 8 | 4 |  |  |  |  |  | 
4 | [H]/N=C(\N/C(=N/[H])NCCCCCCNC(=N)NC(=N)Nc1ccc(Cl)cc1)Nc1ccc(Cl)cc1 [Chlorhexidine] |  |  |  |  |  |  |  |  | 256 (≈ 506 µM) | < 0.5 | 8 (≈ 15.8 µM) | 2 (≈ 3.96 µM) | 16 (≈ 31.7 µM) | 8 (≈ 15.8 µM)
